One molecule from US20110300147A9, “Inhibiting tumor cell invasion, metastasis and angiogenesis” (The Scripps Research institute, priority 2005, published 2011) can be followed below.

By CC50 is commonly meant the concentration at which the toxic effect on the cells reaches its halfway point.

One data set concerns 4T1 mammary carcinoma. Description: primary 4T1 tumor and spontaneous lung metastasis model. In kind it is in vivo, BALB/c mice. The note with it: AEPI-1 50 μg i.p. every two days for two weeks. The method, then: Primary 4T1 tumors are generated by subcutaneous injection of 5×10^5 4T1 cells in the right flank of six-week-old BALB/c mice. Two different groups of four animals were treated between days 9 and 27 after tumor induction. The treatments were 100-μl […] injections of PBS alone (control group) or LEG-3 100 μg/100 μl in PBS by intraperitoneal injection every two days for two weeks. Tumor volumes of treated animals were measured every two-day starting on day 9 by microcaliper measurements (volume=width×length×width/2). As soon as the tumor volume reached 1400 mm^3 in the control groups (on day 30th), euthanasia was performed and lungs were removed and fixed in the Bouin's solution. Lung metastases were counted by anatomy microscope. Statistical significance between treatment groups was determined by two-tailed Student's t tests using Microsoft EXCEL software.
Tumor induction was performed by subcutaneous injection of 5×10^5 4T1 cells in the right flank mammary fat pat of six-week-old BALB/c mice. […] Tumor volumes of treated animals were measured everyday starting on day 6 by micro-caliper measurements (volume=width×length×width/2). […] Lung metastases were counted by anatomy microscope. The statistical significance between treatment and control groups was determined by two-tailed Student's t tests using Microsoft EXCEL software.

Data set [1] concerns angiogenesis in Matrigel plugs. Briefly: Matrigel plug angiogenesis assay in vivo. Also noted: species or system Balb C nu/nu mice. The method, then:
The effect of AEPI-1 on angiogenesis was further investigated in vivo using a Matrigel plug assay. Matrigel containing FGF-2 was injected subcutaneously into Balb C nu/nu mice.
The effect of AEPI-1 on angiogenesis induced by cancer cells was then investigated by including human breast cancer cells (MDA-MB-231 cells) in the Matrigel plugs. The cancer cells produced a spectrum of angiogenic factors and induced robust angiogenic vessel growth (FIG. 5C).

The test system of another data set is breast cancer cells. Briefly: hypoxia induced breast cancer cell migration in vitro. In kind it is cell-based.
Data set [2] deals with mouse aorta vessel sprouts. Briefly: mouse aortic sprouting assay. In kind it is cell-based. The method, then: The effects of AEPI-1 on angiogenesis were further evaluated in mouse aortic sprouting assays. First, AEPI-1 was added to the beginning of the experiment to determine its effect on initiation of vessel sprouts (FIG. 5A). […] In the second assay, AEPI-1 was added at the third day after aortic sprouts were already formed (FIG. 5B), to ascertain whether asparaginyl endopeptidase activity was required for continued extension of vessel growth.

The target of the next data set is T1, legumain (Mus musculus, UniProt O89017).
T1 construct: from tissue
T1 sequence (O89017 18-325): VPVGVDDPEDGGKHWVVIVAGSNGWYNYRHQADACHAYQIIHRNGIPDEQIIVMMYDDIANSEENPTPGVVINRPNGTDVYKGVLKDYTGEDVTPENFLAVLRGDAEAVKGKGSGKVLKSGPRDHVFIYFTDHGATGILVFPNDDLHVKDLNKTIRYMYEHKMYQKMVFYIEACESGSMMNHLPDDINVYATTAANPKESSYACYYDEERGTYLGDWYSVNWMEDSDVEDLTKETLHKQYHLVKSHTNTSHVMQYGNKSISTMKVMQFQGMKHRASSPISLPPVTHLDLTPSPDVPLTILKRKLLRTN
Briefly: legumain activity in tissues after systemic administration of AEPI-1. In kind it is in vivo, mice.

The next data set relates to HUVEC. Briefly: matrigel endothelial cell tube formation assay. In kind it is cell-based, human. As to the method: The effect of AEPI-1 on endothelial cell function was assessed in vitro in a matrigel endothelial cell tube formation assay. […] In contrast, addition of recombinant legumain dramatically promoted and accelerated tube formation (FIG. 4D). HUVEC tube formation was observed as early as 5 hours after assay initiation when legumain was added. Under normal conditions 24 hours were required for the vascular tubes to form.

Data set [3] can be described thus: cytotoxicity of AEPI-1 in wild type 293 cells. In kind it is cell-based, human. The note with it: human, wild type 293 cells. The method, then:
(§1) To further evaluate the role of asparaginyl endopeptidases in angiogenesis, four asparaginyl endopeptidases inhibitors (AEPI) were tested using recombinant legumain in an amidolytic activity assay with fluorescent substrate. FIG. 4A graphically illustrates the effects that AEPI-1 to AEPI-4 (also referred to as legumain inhibitors LI-1 to LI-4) have on asparaginyl endopeptidase activity. […] No apparent cytotoxicity was observed until almost 100 μM AEPI-1 was used in these assays (FIG. 4B).

For the next data set, the system named is wild type 293 cells. Description: cytotoxicity of AEPI-1 in wild type 293 cells. The class given is cell-based, human. As to conditions: wild type and legumain-expressing 293 cells. The method, then:
as §1

Data set [4] is described as follows: cytotoxicity of AEPI-1 in 293 cells expressing legumain. In kind it is cell-based. As to conditions: human, 293 cells recombinantly expressing legumain; 293 cells that recombinantly expressed legumain. As to the method:
as §1

Data set [5] concerns the target legumain cleavage of caspase 9 (Homo sapiens, UniProt Q99538). Description: caspase 9 activity after legumain cleavage. The class given is biochemical. An excerpt:
Legumain catalytically inactivates caspase 9. In addition to suppression of cathepsin B, legumain efficiently inactivates caspase 9 and depletes the cell of pro-caspase 9 (FIG. 20A). […] Loss of pro-caspase 9 led to reduced caspase 3 activation in a reconstituted apoptosome system (FIG. 20D), which was further confirmed by detection of reduced caspase 3 activity (FIG. 20E). These observations indicate that asparaginyl endopeptidases play a critical role in cell survival and tumorigenesis.

Chain of legumain cleavage of caspase 9 (Q99538 18-323, species assumed): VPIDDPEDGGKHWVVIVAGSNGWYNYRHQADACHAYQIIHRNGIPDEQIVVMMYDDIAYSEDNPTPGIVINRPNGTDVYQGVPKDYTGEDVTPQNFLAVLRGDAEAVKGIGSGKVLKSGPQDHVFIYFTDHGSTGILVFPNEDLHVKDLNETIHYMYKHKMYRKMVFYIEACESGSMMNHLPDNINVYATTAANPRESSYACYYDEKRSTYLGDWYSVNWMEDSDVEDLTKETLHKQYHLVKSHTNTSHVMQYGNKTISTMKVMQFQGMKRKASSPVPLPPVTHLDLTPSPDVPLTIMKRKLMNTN

With `CCOC(=O)C1OC1C(=O)N(CC(N)=O)NC(=O)[C@H](C)NC(=O)[C@H](C)NC(=O)OCc1ccccc1` (stereo partly drawn) [AEPI-1, Cbz-Ala-Ala-AzaAsn-(S,S)-EPCOOEt], in the data set on 4T1 mammary carcinoma, the “growth of 4T1 mammary carcinoma” value is given as “inhibits the growth” and the spontaneous lung metastasis entry is on record as “inhibited spontaneous lung metastasis”. Also, the “cancer cell-induced angiogenesis in the plug” value in data set [1] (MDA-MB-231 cells in the Matrigel plugs) is “essentially completely inhibited”. The “FGF-2 induced vessel formation in the plug” value in data set [1] (Matrigel containing FGF-2 s.c., gross appearance, hemoglobin content, histology) was “significantly inhibited”. Also, in the data set on breast cancer cells, the “hypoxia induced breast cancer cell migration” value is recorded as “inhibited”. For the same molecule, in [2] (AEPI-1 added at the beginning of the experiment), the “FGF-2 induced vessel sprouts (initiation)” value is on record as “inhibited FGF-2 induced vessel sprouts in a dose dependent manner”. For the same molecule, in data set [2] (AEPI-1 added at the third day after aortic sprouts were formed), the “extension of established vascular outgrowth” value is recorded as “significantly reduced”. Besides, the cell permeability entry on legumain (inferred from tumor vs kidney legumain activity) is “substantially impermeable to cells”. Also, at legumain (systemic administration), the “legumain activity in 4T1 tumors” value was “inhibited legumain activity in 4T1 tumors” and the “legumain activity in kidney” value is recorded as “does not affect”. In the data set on HUVEC (HUVEC, matrigel), the “concentration at which inhibition of tube formation was apparent” value was found to be 100 nM and the “concentration at which tube formation was completely inhibited” value worked out at 600 nM. The “hypoxia induced tube formation” value with HUVEC (hypoxic conditions) is on record as “inhibited”. For the same molecule, the HUVEC tube formation entry in the data set with HUVEC (matrigel, normal conditions) is given as “suppressed HUVEC tube formation in a dose dependent manner”. Further, in data set [3], half-maximal cytotoxicity (CC50) was put at 320 µM. The “concentration until which no apparent cytotoxicity was observed” value in the data set with wild type 293 cells was roughly 100 µM. The CC50 in data set [4] stood at 430 µM. Also, in data set [5], the “loss of caspase 9 activity caused by legumain cleavage” value is reported as “inhibited”.
